Source: patent US8846947B2, “Benzimidazoles and related analogs as sirtuin modulators” (GlaxoSmithKline LLC, priority 2008, dated 2014)
Where two headings read alike, the source gives them in different places.

Target: T1, SIRT1 (Homo sapiens, UniProt Q96EB6)
T1 sequence (Q96EB6 1-747): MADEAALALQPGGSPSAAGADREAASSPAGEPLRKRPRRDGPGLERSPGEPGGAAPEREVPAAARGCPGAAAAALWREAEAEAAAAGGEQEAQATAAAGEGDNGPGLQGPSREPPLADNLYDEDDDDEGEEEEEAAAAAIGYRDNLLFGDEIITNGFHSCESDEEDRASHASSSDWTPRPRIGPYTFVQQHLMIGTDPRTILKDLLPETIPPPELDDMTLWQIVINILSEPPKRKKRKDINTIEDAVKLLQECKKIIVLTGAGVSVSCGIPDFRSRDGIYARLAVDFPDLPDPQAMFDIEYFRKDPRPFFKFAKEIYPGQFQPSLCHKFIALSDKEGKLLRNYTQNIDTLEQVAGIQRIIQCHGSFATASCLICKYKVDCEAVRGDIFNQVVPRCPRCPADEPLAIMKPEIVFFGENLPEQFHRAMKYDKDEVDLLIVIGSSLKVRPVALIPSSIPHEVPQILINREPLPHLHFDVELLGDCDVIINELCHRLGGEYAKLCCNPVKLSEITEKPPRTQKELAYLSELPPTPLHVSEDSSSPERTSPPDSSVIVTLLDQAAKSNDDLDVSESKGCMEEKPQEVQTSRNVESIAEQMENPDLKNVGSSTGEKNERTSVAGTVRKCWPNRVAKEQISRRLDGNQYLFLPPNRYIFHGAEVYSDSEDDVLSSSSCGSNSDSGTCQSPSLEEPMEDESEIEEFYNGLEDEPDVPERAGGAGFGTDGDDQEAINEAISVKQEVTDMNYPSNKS
Assay: Mass spectrometry based SIRT1 deacetylase activation assay (acetylated p53-derived peptide substrate)
Assay type: biochemical

[1] = 0.5 μM peptide substrate, 120 μM βNAD+, 10 nM SIRT1, 25 min at 25° C.
[2] = 0.5 μM peptide substrate, 120 μM βNAD+, 10 nM SIRT1, 25 min at 25° C., read-out: EC1.5
[3] = 0.5 μM peptide substrate, 120 μM βNAD+, 10 nM SIRT1, 25 minutes at 25° C.

| SMILES | EC1.5 | Fold Act. (percent maximum fold activation) | EC1.5 [3] | Fold Act. (percent maximum fold activation) [3] | other results |
| --- | --- | --- | --- | --- | --- |
| C[C@@H]1CN(c2ccc(-c3nc4c(C(=O)Nc5ccccn5)cccc4[nH]3)c(C(F)(F)F)c2)C[C@H](C)O1 [Compound 571] |  |  |  |  | Fold Act. (percent maximum fold activation) [1]: A (Fold activation >200%); EC1.5 [2]: < 1000 nM |
| C[C@@H]1CN(c2cccc(-c3nc4c(C(=O)Nc5nccs5)cccc4[nH]3)c2)C[C@H](C)O1 [Compound 576, 2-(3-(2,6-dimethylmorpholino)phenyl)-N-(thiazol-2-yl)-1H-benzo[d]imidazole-4-carboxamide] |  |  |  |  | Fold Act. (percent maximum fold activation) [1]: A (Fold activation >200%); EC1.5 [2]: < 1000 nM |
| O=C(Nc1ccccc1OCC(O)CO)c1cccc2[nH]c(-c3ccccc3C(F)(F)F)nc12 (stereo not drawn) [Compound 729] |  |  | B (EC1.5 1-25 uM) | A (Fold activation >200%) |  |
| O=C(NC1CCNCC1)c1cccc2[nH]c(-c3ccccc3C(F)(F)F)nc12 [Compound 431] |  |  |  |  | Fold Act. (percent maximum fold activation) [1]: B (Fold Activation <200%); EC1.5 [2]: > 25000 nM |
| C[C@@H]1CN(CCOc2ccccc2-c2nc3c(C(=O)Nc4nccs4)cccc3[nH]2)C[C@H](C)O1 [Compound 578] |  |  |  |  | Fold Act. (percent maximum fold activation) [1]: B (Fold Activation <200%); EC1.5 [2]: 1000 to 25000 nM |
| O=C(NC1CN2CCC1CC2)c1cccc2[nH]c(-c3cccc(C(F)(F)F)c3)nc12 (stereo not drawn) [Compound 272] | B (EC1.5 1-25 uM) | A (Fold activation >200%) |  |  |  |
| O=C(Nc1ccccn1)c1cccc2[nH]c(-c3cccc(N4CCOCC4)c3)nc12 [Compound 289] | A (EC1.5<1.0 uM) | A (Fold activation >200%) |  |  |  |
| Cc1cnc(NC(=O)c2cccc3[nH]c(-c4cnc5c(c4)OCCN5C)nc23)s1 [Compound 440] |  |  |  |  | Fold Act. (percent maximum fold activation) [1]: A (Fold activation >200%); EC1.5 [2]: < 1000 nM |
| O=C(NCc1ccccn1)c1cccc2[nH]c(-c3ccnn3-c3ccccc3)nc12 [Compound 468] |  |  |  |  | Fold Act. (percent maximum fold activation) [1]: B (Fold Activation <200%); EC1.5 [2]: > 25000 nM |
| CC1(C)Cc2cccc(-c3nc4c(C(=O)Nc5cccnc5)cccc4[nH]3)c2O1 [Compound 401] |  |  |  |  | Fold Act. (percent maximum fold activation) [1]: A (Fold activation >200%); EC1.5 [2]: 1000 to 25000 nM |
| O=C(Nc1cccc(OC[C@H](O)CO)c1)c1cccc2[nH]c(-c3cccc(F)c3)nc12 [Compound 781] |  |  | A (EC1.5<1.0 uM) | A (Fold activation >200%) |  |
| Cc1cc(-c2nc3c(C(=O)Nc4nccs4)cccc3[nH]2)n(C)n1 [Compound 281] | A (EC1.5<1.0 uM) | A (Fold activation >200%) |  |  |  |
| O=C(Nc1ccccn1)c1cccc2[nH]c(-c3cc(F)ccc3C(F)F)nc12 [Compound 513] |  |  |  |  | Fold Act. (percent maximum fold activation) [1]: A (Fold activation >200%); EC1.5 [2]: < 1000 nM |
| O=C(Nc1ccccn1)c1cccc2[nH]c(-c3cc(F)ccc3OCCN3CCOCC3)nc12 [Compound 584] |  |  |  |  | Fold Act. (percent maximum fold activation) [1]: A (Fold activation >200%); EC1.5 [2]: 1000 to 25000 nM |
| O=C(Nc1nccs1)c1cc(F)cc2[nH]c(-c3ccc(OC[C@@H](O)CO)cc3C(F)F)nc12 [Compound 831] |  |  | A (EC1.5<1.0 uM) | A (Fold activation >200%) |  |
| CS(=O)(=O)c1cc(Cl)ccc1-c1nc2c(C(=O)Nc3nccs3)cccc2[nH]1 [Compound 520] |  |  |  |  | Fold Act. (percent maximum fold activation) [1]: A (Fold activation >200%); EC1.5 [2]: 1000 to 25000 nM |
| O=C(Nc1cccc(OCC(O)CO)c1)c1cccc2[nH]c(-c3ccc(F)cc3C(F)(F)F)nc12 (stereo not drawn) [Compound 705] |  |  | A (EC1.5<1.0 uM) | A (Fold activation >200%) |  |
| O=C(Nc1nccs1)c1cccc2[nH]c(-c3ccc(N4CCCC4)cc3C(F)(F)F)nc12 [Compound 572] |  |  |  |  | Fold Act. (percent maximum fold activation) [1]: A (Fold activation >200%); EC1.5 [2]: 1000 to 25000 nM |
| O=C(Nc1cccnn1)c1cccc2[nH]c(-c3cccc(C(F)(F)F)c3)nc12 [Compound 300] | A (EC1.5<1.0 uM) | A (Fold activation >200%) |  |  |  |
| O=C(Nc1ccncc1)c1cccc2[nH]c(-c3ccc(Cl)cc3C(F)(F)F)nc12 [Compound 315] | A (EC1.5<1.0 uM) | A (Fold activation >200%) |  |  |  |
| CC(C)(C)c1cccc(-c2nc3c(C(=O)Nc4ccccn4)cccc3[nH]2)c1OCCN1CCOCC1 [Compound 588] |  |  |  |  | Fold Act. (percent maximum fold activation) [1]: B (Fold Activation <200%); EC1.5 [2]: 1000 to 25000 nM |
| O=C(Nc1cccc(CN2CCOCC2)n1)c1cccc2[nH]c(-c3cccnc3)nc12 [Compound 850] |  |  | A (EC1.5<1.0 uM) | A (Fold activation >200%) |  |
| O=C(NC1CCOC1=O)c1cccc2[nH]c(-c3cccc(C(F)(F)F)c3)nc12 (stereo not drawn) [Compound 273] | B (EC1.5 1-25 uM) | A (Fold activation >200%) |  |  |  |
| O=C(Nc1ncc(CN2CCOCC2)s1)c1cccc2[nH]c(-c3ccccc3C(F)(F)F)nc12 [Compound 780, N-(5-(morpholinomethyl)thiazol-2-yl)-2-(2-(trifluoromethyl)phenyl)-1H-benzo[d]imidazole-4-carboxamide] |  |  | C (EC1.5 >25 uM) | B (Fold Activation <200%) |  |
| O=C(Nc1cccnn1)c1cc(N2CCOCC2)cc2[nH]c(-c3ccccc3C(F)(F)F)nc12 [Compound 631] |  |  | A (EC1.5<1.0 uM) | A (Fold activation >200%) |  |
| O=C(Nc1ccccn1)c1cncc2[nH]c(-c3ccc(Cl)cc3C(F)(F)F)nc12 [Compound 649] |  |  | A (EC1.5<1.0 uM) | A (Fold activation >200%) |  |
| O=C(Nc1nccs1)c1cncc2[nH]c(-c3ccc(Cl)cc3C(F)(F)F)nc12 [Compound 648] |  |  | A (EC1.5<1.0 uM) | A (Fold activation >200%) |  |

The next lines start with results.

| EC1.5 | Fold Act. (percent maximum fold activation) | EC1.5 [3] | Fold Act. (percent maximum fold activation) [3] | SMILES | other results |
| --- | --- | --- | --- | --- | --- |
| B (EC1.5 1-25 uM) | A (Fold activation >200%) |  |  | O=C(NC1CCOC1=O)c1cccc2[nH]c(-c3cccc(N4CCOCC4)c3)nc12 (stereo not drawn) [Compound 397] |  |
| B (EC1.5 1-25 uM) | A (Fold activation >200%) |  |  | Cc1cc(NC(=O)c2cccc3[nH]c(-c4cccc(C(F)(F)F)c4)nc23)n(C)n1 [Compound 278] |  |
|  |  | B (EC1.5 1-25 uM) | A (Fold activation >200%) | O=C(Nc1ccccc1OCC(O)CO)c1cccc2[nH]c(-c3ccc(Cl)cc3C(F)(F)F)nc12 (stereo not drawn) [Compound 726] |  |
|  |  | A (EC1.5<1.0 uM) | A (Fold activation >200%) | Cc1cnc(NC(=O)c2cncc3[nH]c(-c4ccccc4C(F)(F)F)nc23)s1 [Compound 639] |  |
|  |  | A (EC1.5<1.0 uM) | A (Fold activation >200%) | O=C(Nc1cccc(OC[C@H](O)CO)c1)c1cccc2[nH]c(-c3cccc(Cl)c3)nc12 [Compound 782] |  |
|  |  | A (EC1.5<1.0 uM) | A (Fold activation >200%) | O=C(Nc1cccc(CN2CCOCC2)n1)c1cccc2[nH]c(-c3ccccc3F)nc12 [Compound 854] |  |
| B (EC1.5 1-25 uM) | A (Fold activation >200%) |  |  | O=C(Nc1cccc2[nH]c(-c3cccc(N4CCOCC4)c3)nc12)c1ccccn1 [Compound 367] |  |
| B (EC1.5 1-25 uM) | A (Fold activation >200%) |  |  | O=C(Nc1nccs1)c1cccc2[nH]c(-c3ccccc3CN3CCOCC3)nc12 [Compound 267] |  |
| B (EC1.5 1-25 uM) | A (Fold activation >200%) |  |  | O=C(Nc1cccnc1)c1cccc2[nH]c(-c3cccc(CN4CCCC4)c3)nc12 [Compound 352] |  |
|  |  | A (EC1.5<1.0 uM) | A (Fold activation >200%) | O=C(Nc1cccnc1)c1cc(F)cc2[nH]c(-c3ccc(OC[C@H](O)CO)cc3C(F)F)nc12 [Compound 829] |  |
| B (EC1.5 1-25 uM) | A (Fold activation >200%) |  |  | O=C(Nc1cccc2[nH]c(-c3ccnn3-c3ccccc3)nc12)c1cscn1 [Compound 392] |  |
|  |  | B (EC1.5 1-25 uM) | A (Fold activation >200%) | C[C@@H]1CN(c2ccc(C(F)(F)F)c(-c3nc4c(C(=O)Nc5nccs5)cccc4[nH]3)c2)C[C@H](C)O1 [Compound 662] |  |
|  |  | A (EC1.5<1.0 uM) | A (Fold activation >200%) | O=C(Nc1nccs1)c1cccc2[nH]c(-c3ccc(N4CC[C@@H](F)C4)cc3C(F)(F)F)nc12 [Compound 608] |  |
| A (EC1.5<1.0 uM) | B (Fold Activation <200%) |  |  | O=C(Nc1cccnc1)c1cccc2[nH]c(-c3ccc(-c4nnn[nH]4)cc3)nc12 [Compound 349] |  |
| A (EC1.5<1.0 uM) | A (Fold activation >200%) |  |  | O=C(Nc1ccccn1)c1cccc2[nH]c(-c3ccc(-c4nnn[nH]4)cc3)nc12 [Compound 342] |  |
